Laboratory results as given in PMC11813147, “Bioactivity assessment of peptides derived from salted jellyfish (Rhopilema hispidum) byproducts” (PLOS ONE, 2025).

Tested on: angiotensin I-converting enzyme (ACE)
Experiment: ACE inhibitory activity assay (fluorometric ACE activity assay kit)
Assay type: biochemical
Conditions: peptide sample 1 mg/mL; for ACE inhibitory activity, mean±SD / inhibition: 37 °C, fluorescence ex 320/em 405 nm, n = 3, mean ± SD
Experimental: The ACE inhibitory activity assay was performed following the method outlined by Batista et al., with slight modifications, using a fluorometric angiotensin I-converting enzyme (ACE) activity assay kit from Sigma-Aldrich (catalog number CS0002), Burlington, Massachusetts, USA. In summary, 10 µ L of the sample (1 mg/mL for the peptide sample and 50 µg/mL for ramipril) was combined with 40 µ L of the ACE solution (CS0002B) in 96-well flat-bottom black plates at 37 °C for 5 min. Next, 50 µ L of the substrate solution (CS0002C) was added to this mixture to initiate the reaction. A fluorescence multiwell plate reader was used to monitor the changes in fluorescence. The sample’s fluorescence was measured every min for 5 min, with excitation at 320 nm and emission at 405 nm. All reagents, except the test sample, were prepared to assess the ACE positive control activity. A kit standard solution (CS0002D) was diluted with assay buffer (CS0002A) to create different concentrations (nmol) of the standard solution, allowing generation of a standard curve. The slope of the standard curve (RFU/nmol) and the slope of the sample kinetic curve were utilized to calculate the ACE activity using the following equation (3):
ACEactivitynmol/min=Slopesample/Slopestandard×DF (3)
Where Slopesample refers to the slope of the blank-subtracted sample curve (RFU/min), Slopestandard refers to the slope of the blank-subtracted standard curve (RFU/nmol), DF is the dilution factor, and 0.1 nmol/min is equivalent to […].
In this study, the results of ACE inhibitory activity are expressed as percentages. The ACE inhibitory activity (%) was calculated using the following equation (4):
ACEinhibitoryactivity%=ACEPC–ACES/ACEPC×100 (4)
Where ACEPC represents the ACE activity of the positive control, and ACES denotes the ACE activity of the sample.

Sequence | ACE inhibitory activity, mean±SD (SD) | ACE inhibitory activity (replicate 1) | ACE inhibitory activity (replicate 2) | ACE inhibitory activity (replicate 3) | inhibition (SD) | ACE inhibitory activity, mean±SD
DAENKENVEE [P18, synthesized peptide identified from jellyfish fraction PUR20C] | 22.80±2.33^G % | 20.13% | 23.85% | 24.42% | – | –
EIDKLPPESRP [P7, synthesized peptide identified from jellyfish fraction PUR20C] | – | 8.11% | 8.96% | 8.96% | 8.68 ± 0.49% | –
EQIYPMGEGDEL [P4, synthesized peptide identified from jellyfish fraction PUR20C] | 5.15±0.92^J % | 5.53% | 4.10% | 5.82% | – | –
GKNCGETVWE [P9, synthesized peptide identified from jellyfish fraction PUR20C] | – | 5.53% | 8.68% | 8.39% | 7.53 ± 1.74% | –
HSVLTASYRN [P5, synthesized peptide identified from jellyfish fraction PUR20C] | 29.10±3.81^F % | 24.71% | 31.01% | 31.58% | – | –
KFNEVVYFL [P15, synthesized peptide identified from jellyfish fraction PUR20C] | 55.43±3.55^C % | 57.63% | 51.33% | 57.34% | – | –
LGAEGRSP [P13, synthesized peptide identified from jellyfish fraction PUR20C] | 20.51±1.81^G % | 21.56% | 18.41% | 21.56% | – | –
LNIPKPKLNLL [P11, synthesized peptide identified from jellyfish fraction PUR20C] | 22.90±3.15^G % | 19.27% | 25.00% | 24.42% | – | –
MVVACVLPEA [P16, synthesized peptide identified from jellyfish fraction PUR20C] | – | 92.27% | 89.69% | 93.12% | – | 91.69%
NQKAMQELNE [P1, synthesized peptide identified from jellyfish fraction PUR20C] | – | 6.67% | 6.67% | 6.10% | 6.48 ± 0.33% | –
PFTMYFLL [P14, synthesized peptide identified from jellyfish fraction PUR20C] | 81.87±0.33^B % | 81.67% | 81.67% | 82.25% | – | –
PMETDDQPNN [P17, synthesized peptide identified from jellyfish fraction PUR20C] | 12.40±2.23^H % | 9.82% | 13.54% | 13.83% | – | –
RARVVPMY [P6, synthesized peptide identified from jellyfish fraction PUR20C] | 33.68±0.59^E % | 33.87% | 33.01% | 34.16% | – | –
RPLAKIIP [P8, synthesized peptide identified from jellyfish fraction PUR20C] | 29.96±3.35^F % | 32.44% | 26.14% | 31.29% | – | –
TDSPAPSETTD [P2, synthesized peptide identified from jellyfish fraction PUR20C] | 0.85±0.33^K % | 0.66% | 1.24% | 0.66% | – | –
